Laboratory results as given in ChEMBL document CHEMBL4627341, “Synthesis and evaluation of anti-tumor activity of novel triazolo[1,5-a] pyrimidine on cancer cells by induction of cellular apoptosis and inhibition of epithelial-to-mesenchymal transition process” (Bioorg Med Chem Lett, 2020).
Activity calls are given as the source filed them. No cut-off for these calls is given here.

Tests used:
PC-3 [1] = assay: Cytotoxicity against human PC3 cells assessed as reduction in cell viability incubated for 48 hrs by MTT assay; format: functional, cell-based; details: PC-3, 48 h
LNCaP [2] = assay: Cytotoxicity against human LNCAP cells assessed as reduction in cell viability incubated for 48 hrs by MTT assay; format: functional, cell-based
NHDF = assay: Cytotoxicity against human HDF cells assessed as reduction in cell viability incubated for 48 hrs by MTT assay; format: cell-based
A-375 [3] = assay: Cytotoxicity against human A375 cells assessed as reduction in cell viability incubated for 48 hrs by MTT assay; format: functional, cell-based; details: A-375, 48 h
PC-3 [4] = assay: Induction of cell death in human PC3 cells assessed as morphological changes by DAPI staining based inverted fluorescence microscopy; format: functional
LNCaP [5] = assay: Induction of cell death in human LNCAP cells assessed as chromatin fragmentation by DAPI staining based inverted fluorescence microscopy; format: functional
PC-3 [6] = assay: Induction of cell death in human PC3 cells assessed as chromatin fragmentation by DAPI staining based inverted fluorescence microscopy; format: functional
A-375 [7] = assay: Induction of cell death in human A375 cells assessed as chromatin fragmentation by DAPI staining based inverted fluorescence microscopy; format: functional
LNCaP [8] = assay: Induction of cell death in human LNCAP cells assessed as morphological changes by DAPI staining based inverted fluorescence microscopy; format: functional
LNCaP [9] = assay: Inhibition of epithelial-mesenchymal transition in human LNCAP cells assessed as decrease in vimentin mRNA expression level by qRT-PCR analysis; format: functional, cell-based
LNCaP [10] = assay: Induction of apoptosis in human LNCAP cells assessed as downregulation of Bcl2 mRNA expression by qRT-PCR analysis; format: functional, cell-based
LNCaP [11] = assay: Induction of apoptosis in human LNCAP cells assessed as upregulation of Bax mRNA expression by qRT-PCR analysis; format: functional, cell-based
LNCaP [12] = assay: Inhibition of epithelial-mesenchymal transition in human LNCAP cells assessed as increase in E-cadherin mRNA expression by qRT-PCR analysis; format: functional, cell-based
A-375 [13] = assay: Induction of cell death in human A375 cells assessed as morphological changes by DAPI staining based inverted fluorescence microscopy; format: functional
LNCaP [14] = assay: Inhibition of cell migration at human LNCAP cells incubated for 24 hrs by phase contrast microscopy based wound healing assay; format: functional

Structure (SMILES) | IC50 (PC-3 [1]) [µM] | IC50 (LNCaP [2]) [µM] | IC50 (NHDF) [µM] | IC50 (A-375 [3]) [µM] | also measured
CNC1=C([N+](=O)[O-])C(c2ccccc2)Nc2ncnn21 (configuration not stated) | 45 | > 100 | > 100 | > 100 | 
CNC1=C([N+](=O)[O-])C(c2ccc(C(F)(F)F)cc2)Nc2ncnn21 (configuration not stated) | > 100 | > 100 | > 100 | 63.4 | 
CNC1=C([N+](=O)[O-])C(c2cccc(F)c2)Nc2ncnn21 (configuration not stated) | 55.6 | > 100 | > 100 | 61.3 | 
COc1cc([C@@H]2c3cc4c(cc3[C@@H](O[C@@H]3O[C@@H]5CO[C@@H](C)O[C@H]5[C@H](O)[C@H]3O)[C@H]3COC(=O)[C@H]23)OCO4)cc(OC)c1O [ETOPOSIDE] | 30 | 31.2 | > 100 | 24.5 | 
CNC1=C([N+](=O)[O-])C(c2ccccc2Cl)Nc2ncnn21 (configuration not stated) | 63.3 | > 100 | > 100 | > 100 | 
CNC1=C([N+](=O)[O-])C(c2ccc(Br)cc2)Nc2ncnn21 (configuration not stated) | > 100 | > 100 | > 100 | > 100 | 
CNc1c([N+](=O)[O-])c(-c2ccncc2)nc2ncnn12 | > 100 | 31.7 | > 100 | > 100 | 
CNC1=C([N+](=O)[O-])C(c2ccc(Cl)cc2)Nc2ncnn21 (configuration not stated) | > 100 | > 100 | > 100 | > 100 | 
CNC1=C([N+](=O)[O-])C(c2ccc([N+](=O)[O-])cc2)Nc2ncnn21 (configuration not stated) | 65 | 28.6 | > 100 | 31.7 | Activity (PC-3 [4]): Active; Activity (LNCaP [5]): Active; Activity (PC-3 [6]): Active; Activity (A-375 [7]): Active; Activity (LNCaP [8]): Active; inhibition (LNCaP [9]): Active; Activity (LNCaP [10]): Active; Activity (LNCaP [11]): Active; inhibition (LNCaP [12]): Active; Activity (A-375 [13]): Active; inhibition (LNCaP [14]): Active
